Results published in ChEMBL document CHEMBL1151462, “Mosaic tetracycline resistance genes and their flanking regions in Bifidobacterium thermophilum and Lactobacillus johnsonii” (2008).
Values after ≈ are worked out from the molar mass of the structure shown.

Key:
Type in all cases: functional
[1] = tested on: Bifidobacterium thermophilum; test: Antibacterial activity against Bifidobacterium thermophilum B0219 by broth microdilution method
[2] = tested on: Bifidobacterium thermophilum; test: Antibacterial activity against Bifidobacterium thermophilum B0241 by broth microdilution method
[3] = tested on: Bifidobacterium thermophilum; test: Antibacterial activity against Bifidobacterium thermophilum B0242 by broth microdilution method
[4] = tested on: Bifidobacterium thermophilum; test: Antibacterial activity against Bifidobacterium thermophilum B0253 by broth microdilution method
[5] = tested on: Bifidobacterium thermophilum; test: Antibacterial activity against Bifidobacterium thermophilum B0256 by broth microdilution method
[6] = tested on: Lactobacillus johnsonii; test: Antibacterial activity against Lactobacillus johnsonii L0077 by Etest

CN(C)[C@@H]1C(O)=C(C(N)=O)C(=O)[C@@]2(O)C(O)=C3C(=O)c4c(O)cccc4[C@@](C)(O)[C@H]3C[C@@H]12 [TETRACYCLINE]
MIC [1]: 128 µg/mL (≈ 288 µM) | MIC [2]: 128 µg/mL (≈ 288 µM) | MIC [3]: 256 µg/mL (≈ 576 µM) | MIC [4]: 128 µg/mL (≈ 288 µM) | MIC [5]: 128 µg/mL (≈ 288 µM) | MIC [6]: > 256 µg/mL
